US6083932A, “Pharmaceutical compositions derived from ginseng and methods of treatment using same” (CV Technologies Inc., priority 1998, dated 2000)
Several values for one entry are separate records, joined by “and”; a condition that tells them apart may be missing. Equal entries are not always repeated.

Columns and labels:
[1] = system: choline uptake into synaptosomes, hippocampus; experiment: choline uptake into synaptosomes from rat hippocampus; assay type: biochemical; details: 1 × 10^-6M, n = 10, 1 µM
Text: We also studied the effects of HT1001 on choline uptake in synaptosomes.
We have examined choline uptake in synaptosome preparations from whole brain and hippocampus in the presence of Rb1, HT1001 and HC3.

[2] = system: choline uptake into synaptosomes, whole brain; details: Benishin 1992 / previously demonstrated; cited from earlier work
rats = details: rat, in vivo; cited from earlier work
monoamine oxidase-A = target: T1, monoamine oxidase-A (Rattus norvegicus, UniProt P21396); experiment: in vitro monoamine oxidase-A inhibiting activity (radiochemical, 5-hydroxytryptamine substrate); assay type: biochemical; details: read-out: % MAO-A Inhibition; for inhibition at 1000 µg/mL: 1.0 mg/ml; for inhibition at 10000 µg/mL: 10 mg/ml
T1 construct: homogenates of rat brain; from tissue; host or cells: rat brain homogenate
T1 sequence (P21396 1-526): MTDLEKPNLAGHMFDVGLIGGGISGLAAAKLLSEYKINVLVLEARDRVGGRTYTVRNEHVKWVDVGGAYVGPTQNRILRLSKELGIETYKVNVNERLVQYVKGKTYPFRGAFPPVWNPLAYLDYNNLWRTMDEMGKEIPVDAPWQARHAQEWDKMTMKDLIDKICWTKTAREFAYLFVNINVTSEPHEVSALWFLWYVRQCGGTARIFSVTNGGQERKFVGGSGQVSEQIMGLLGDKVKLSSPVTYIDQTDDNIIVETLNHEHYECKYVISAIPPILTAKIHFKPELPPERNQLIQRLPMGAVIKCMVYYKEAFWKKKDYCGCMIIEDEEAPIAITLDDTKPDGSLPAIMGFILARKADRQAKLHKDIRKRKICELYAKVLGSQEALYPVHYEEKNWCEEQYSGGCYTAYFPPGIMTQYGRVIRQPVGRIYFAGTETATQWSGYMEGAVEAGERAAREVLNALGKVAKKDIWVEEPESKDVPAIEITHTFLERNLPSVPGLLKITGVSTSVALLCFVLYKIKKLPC
Description: Example 1 is a study of the effects of several extracts of HT1001, PQ4, PQ5, PQ6 and pure ginsenosides, on monoamine oxidase A (MAO A) and monoamine oxidase B (MAO B) activity in vitro.
HT-1001, related extracts and pure ginsenosides were evaluated for in vitro monoamine oxidase-A and monoamine oxidase-B inhibiting activity using the radiochemical procedure of Lyles and Callingham, Biochem. Pharmacol. 31: 1417-1424 (1982), employing either radiolabelled 5-hydroxytryptamine or β-phenylethylamine as substrates for monoamine oxidase-A (MAO-A) or monoamine oxidase-B (MAO-B) respectively. Various concentrations of the compounds of interest were incubated in appropriately diluted homogenates of rat brain in a 0.2 M potassium phosphate buffer. After a 15 minute preincubation period the reaction was initiated by the addition of substrate. Incubations proceded at 37° C. for 10 minutes. Incubation was terminated by the addition of acid and the radiolabelled products (5-hydroxyindoleacetic acid, 5-hydroxyindoleacetaldehyde or phenylacetic acid, phenylacetaldehyde) were extracted and quantified by liquid scintillation counting procedures. Incubations were done in triplicate and incubations including pheneizine a known MAO inhibitor were included as controls and for comparison. The percent inhibition of monoamine oxidase-A or monoamine oxidase-B activity compared to controls containing no experimental material was calculated.

PC12 cells = experiment: neurite outgrowth in PC12 cells; assay type: cell-based; details: seven days after treatment
Description: A study of the neurotrophic effects of HT1001 and some pure ginsenosides was conducted. A new mechanism of action for HT1001 was shown, which is the stimulation of neurite outgrowth in a PC12 cell line. […] The beneficial effects (prevention/treatment) of HT-1001 may apply to degenerative diseases such as senile dementia, Parkinson's disease, Alzheimer's disease, multi-infarct dementia, etc. Alzheimer's disease (AD) is associated with degeneration of cholinergic nerve tracts including projections from the basal forebrain to the cortex and hippocampus. The PC12 (pheochromocytoma) cell line is one of the models for the study of the development of these nerve tracts. The cell line is phenotypically a chromaffin cell line, but can be induced to express adrenergic and cholinergic markers as well. This model has the advantages that (1) it is an immortalized cell line, (2) it is sensitive to, but not dependent upon, NGF for survival, and (3) it shares many properties in common with the central cholinergic neurons of the basal forebrain. It has been noted that PC12 cells are not sensitive to all of the trophic factors that central cholinergic neurons respond to, whereas central cholinergic neurons respond to all trophic factors that PC12 cells respond to. […] The cellular responses to Nerve Growth Factor (NGF) and samples were determined by counting the number of cells containing processes in PC12 cells. […] The cells and neurites were counted as follows: The cells with circular or global shape and no neurite outgrowth were scored as 0 (S0). […] Cells with more than two small neurites on the cell bodies were scored as S2. Cells with one or two neurites with a length of at least two times diameter as their body were scored as S3. Cells with more than two long neurites were scored as S4. The neurite index was calculated as below: Neurite index (In)=total neurite Score (ΣS)/total cell number (.[…] is the cell number of every cell field. The test samples included: […]

SMILES | choline uptake, Rb1 [1] | choline uptake (literature) [2] | learning and memory (literature) (rats) | inhibition at 1000 µg/mL (monoamine oxidase-A) [%] | inhibition at 10000 µg/mL (monoamine oxidase-A) [%] | neurite outgrowth (FIG. 31) (PC12 cells)
CC(C)=CCC[C@](C)(O[C@@H]1O[C@H](CO[C@@H]2O[C@H](CO)[C@@H](O)[C@H](O)[C@H]2O)[C@@H](O)[C@H](O)[C@H]1O)[C@H]1CC[C@]2(C)[C@@H]1[C@H](O)C[C@@H]1[C@@]3(C)CC[C@H](O[C@@H]4O[C@H](CO)[C@@H](O)[C@H](O)[C@H]4O[C@@H]4O[C@H](CO)[C@@H](O)[C@H](O)[C@H]4O)C(C)(C)[C@@H]3CC[C@]12C [Rb1, ginsenoside Rb1] | 126 % control and 111 % control and 125 % control | increase choline uptake | enhance learning and memory | -6.9 | 7.1 | significantly increased neurite outgrowth
CC(C)=CCC[C@](C)(O[C@@H]1O[C@H](CO)[C@@H](O)[C@H](O)[C@H]1O)[C@H]1CC[C@]2(C)[C@@H]1[C@H](O)C[C@@H]1[C@@]3(C)CC[C@H](O)C(C)(C)[C@@H]3[C@@H](O[C@@H]3O[C@H](CO)[C@@H](O)[C@H](O)[C@H]3O)C[C@]12C [Rg1, ginsenoside Rg1] |  |  |  | -10.8 | 5.1 | significantly increased neurite outgrowth
